Reference: patent US20040106545A1, “Compounds and methods for modulating cell adhesion” (priority 1996, published 2004)
“Also recorded” adds a separate entry of the source. Where two headings read alike, the source gives them in different places. Positions of bridges follow the written chain, without caps; N, C: chain ends. Residues, ends and D or L forms follow the SMILES beside them.

Tests used:
[1] = target: T1, chick N-cadherin (Gallus gallus, UniProt P10288); assay: Neurite outgrowth of rat cerebellar neurons on N-cadherin expressing 3T3 monolayers (Example 15); type: cell-based; conditions: for inhibitory activity on N-cadherin dependent neurite outgrowth, structure/activity statements: Tables 8 and 9; for inhibition at 250 µg/mL: 16-18 hours, read-out: % Inhibition of N-Cadherin Dependent Neurite Outgrowth
T1 construct: expressed in transfected cells; host or cells: 3T3 fibroblasts (monolayer); rat post-natal day 2-3 cerebellar neurons plated on top
T1 sequence (P10288 165-912): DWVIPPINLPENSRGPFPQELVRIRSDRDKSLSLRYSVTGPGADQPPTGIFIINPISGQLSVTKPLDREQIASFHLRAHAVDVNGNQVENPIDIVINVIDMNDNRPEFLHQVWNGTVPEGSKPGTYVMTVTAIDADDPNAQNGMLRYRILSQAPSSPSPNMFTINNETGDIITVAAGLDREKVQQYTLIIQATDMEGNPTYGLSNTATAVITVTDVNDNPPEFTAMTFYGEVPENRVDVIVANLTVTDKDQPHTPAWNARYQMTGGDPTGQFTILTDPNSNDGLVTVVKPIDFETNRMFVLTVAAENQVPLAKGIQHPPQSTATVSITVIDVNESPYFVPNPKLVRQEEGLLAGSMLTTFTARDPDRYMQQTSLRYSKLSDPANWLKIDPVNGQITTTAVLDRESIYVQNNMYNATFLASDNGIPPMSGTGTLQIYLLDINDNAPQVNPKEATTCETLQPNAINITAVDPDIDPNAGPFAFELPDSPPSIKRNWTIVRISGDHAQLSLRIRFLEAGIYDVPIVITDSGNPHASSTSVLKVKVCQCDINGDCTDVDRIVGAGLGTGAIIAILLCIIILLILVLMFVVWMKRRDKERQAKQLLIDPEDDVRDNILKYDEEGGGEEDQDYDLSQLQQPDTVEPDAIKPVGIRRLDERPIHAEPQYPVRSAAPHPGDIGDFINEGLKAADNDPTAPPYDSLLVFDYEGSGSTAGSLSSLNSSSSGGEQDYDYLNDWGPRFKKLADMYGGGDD
Procedure: (§1) Cell culture and neurite outgrowth assays. Co-cultures of cerebellar neurons on monolayers of control 3T3 cells and monolayers of transfected 3T3 cells that express physiological levels of chick N-cadherin or human L1 were established as previously described (Williams et al., Neuron 13:583-594, 1994). In brief, 80,000 3T3 cells (control and transfected) were plated into individual chambers of an eight-chamber tissue culture slide coated with polylysine and fibronectin and cultured in DMEM/10% FCS. After 24 hours, when confluent monolayers had formed, the medium was removed and 3000 cerebellar neurons isolated from post-natal day 2-3 rats were plated into each well in SATO media (Doherty et al., Nature 343:464-466, 1990) supplemented with 2% FCS. All of the test peptides were added immediately before the neurons as a 2× stock prepared in SATO/2% FCS. The co-cultures were maintained for 16-18 hours, at which time they were fixed and immunostained for GAP-43 which is present only in the neurons and delineates the neuritic processes. The mean length of the longest neurite per cell was measured for 150-200 neurons sampled in replicate cultures as previously described (Williams et al., Neuron 13:583-594, 1994). […] Dose-response curves were evaluated and the EC50 values determined.

[2] = test system: Madin Darby canine kidney (MDCK) cells; type: cell-based; conditions: for EC50, decrease of electrical resistance across MDCK cell monolayer: 18 hours
Procedure: Yet another assay evaluates the effect of a modulating agent on the electrical resistance across a monolayer of cells. For example, Madin Darby canine kidney (MDCK) cells can be exposed to the modulating agent dissolved in medium (e.g., at a final concentration of 0.5 mg/ml for a period of 24 hours). The effect on electrical resistance can be measured using standard techniques. This assay evaluates the effect of a modulating agent on tight junction formation in epithelial cells. In general, the presence of 500 μg/mL modulating agent should result in a statistically significant decrease in electrical resistance after 24 hours.
Madin Darby canine kidney (MDCK) cells were plated in Millicells (Millipore, Bedford, Mass.), at a density of 300,000 cells per Millicell, and cultured in Dulbecco's Modified Eagle Medium (DMEM; Sigma, St. Louis, Mo.) containing 5% fetal calf serum (Sigma, St. Louis, Mo.) until monolayers formed. Monolayers were exposed to the modulating agent dissolved in medium. The electrical resistance was measured using the EVOM device (World Precision Instruments, Sarasota, Fla.). At the time of measurement, fresh medium, with or without the modulating agent, may be added to the Millicells.

[3] = target: L1 (Homo sapiens, UniProt P32004); assay: Neurite outgrowth of rat cerebellar neurons on L1 expressing 3T3 monolayers (Example 15); type: cell-based; set-up: expressed in transfected cells; rat cerebellar neurons on top; conditions: for inhibition at 125 µg/mL: 125 μg/ml, read-out: % Inhibition of L1 Response; for effect on L1 stimulated neurite outgrowth (in words): concentrations that inhibited the N-cadherin response (100 μg/mL in FIG. 24)
Procedure: as §1
Other cell adhesion molecules, such as L1, can stimulate neurite outgrowth, and this response shares the same downstream signaling steps as the N-cadherin response. […] As previously reported, L1 stimulated neurite outgrowth from cerebellar neurons.

[4] = test system: Madin Darby canine kidney (MDCK) cells; type: cell-based; conditions: 18 h
[5] = target: T2, N-cadherin (Gallus gallus, UniProt P10288); assay: Neurite outgrowth inhibition, rat neurons (Example 21); type: cell-based; conditions: read-out: % Inhibition of neurite outgrowth; 250 μg/mL
T2 construct: expressed in transfected cells; host or cells: 3T3 fibroblasts (monolayer)
T2 sequence (P10288 165-912): T1 sequence (P10288 165-912)

[6] = test system: HMVEC; type: cell-based, human; conditions: 3 h
Procedure: (§2) N—Ac-CHAVC-NH2 (SEQ ID NO:10) and the control peptide N—Ac-CHGVC-NH2 (SEQ ID NO:11) were evaluated for possible cytotoxic effects on human microvascular endothelial (HMVEC; Clonetics), human umbilical vein endothelial (HUVEC; ATCC #CRL-1730), IAFp2 (human fibroblast cell line; Institute Armand-Frapier, Montreal, Quebec), WI-38 (human fibroblast cell line; ATCC #CCL-75), MDA-MB231 (human breast cancer cell line; ATCC #HTB-26), and PC-3 (human prostate cancer cell line; ATCC #CRL-1435) cells utilizing the MTT assay (Plumb et al., Cancer Res. 49:4435-4440, 1989). Neither of the peptides was cytotoxic at concentrations up to and including 100 μM. Similarly, neither of the peptides was capable of inhibiting the proliferation of the above cell lines at concentrations up to 100 μM, as judged by ^3H-thymidine incorporation assays.

[7] = test system: HUVEC; type: cell-based, human; conditions: 3 h
Procedure: as §2

[8] = test system: IAFp2; type: cell-based, human; conditions: 3 h
Procedure: as §2

[9] = test system: MDA-MB231; type: cell-based, human; conditions: 3 h
Procedure: as §2

[10] = test system: PC-3; type: cell-based, human; conditions: 3 h
Procedure: as §2

[11] = test system: WI-38; type: cell-based, human; conditions: 3 h
Procedure: as §2

[12] = test system: MDA-MB231; assay: Cytotoxicity, MTT assay, MDA-MB231; type: cell-based, human
Procedure: as §2

[13] = test system: PC-3; assay: Cytotoxicity, MTT assay, PC-3; type: cell-based, human
Procedure: as §2

L1, sequence (P32004 20-1257): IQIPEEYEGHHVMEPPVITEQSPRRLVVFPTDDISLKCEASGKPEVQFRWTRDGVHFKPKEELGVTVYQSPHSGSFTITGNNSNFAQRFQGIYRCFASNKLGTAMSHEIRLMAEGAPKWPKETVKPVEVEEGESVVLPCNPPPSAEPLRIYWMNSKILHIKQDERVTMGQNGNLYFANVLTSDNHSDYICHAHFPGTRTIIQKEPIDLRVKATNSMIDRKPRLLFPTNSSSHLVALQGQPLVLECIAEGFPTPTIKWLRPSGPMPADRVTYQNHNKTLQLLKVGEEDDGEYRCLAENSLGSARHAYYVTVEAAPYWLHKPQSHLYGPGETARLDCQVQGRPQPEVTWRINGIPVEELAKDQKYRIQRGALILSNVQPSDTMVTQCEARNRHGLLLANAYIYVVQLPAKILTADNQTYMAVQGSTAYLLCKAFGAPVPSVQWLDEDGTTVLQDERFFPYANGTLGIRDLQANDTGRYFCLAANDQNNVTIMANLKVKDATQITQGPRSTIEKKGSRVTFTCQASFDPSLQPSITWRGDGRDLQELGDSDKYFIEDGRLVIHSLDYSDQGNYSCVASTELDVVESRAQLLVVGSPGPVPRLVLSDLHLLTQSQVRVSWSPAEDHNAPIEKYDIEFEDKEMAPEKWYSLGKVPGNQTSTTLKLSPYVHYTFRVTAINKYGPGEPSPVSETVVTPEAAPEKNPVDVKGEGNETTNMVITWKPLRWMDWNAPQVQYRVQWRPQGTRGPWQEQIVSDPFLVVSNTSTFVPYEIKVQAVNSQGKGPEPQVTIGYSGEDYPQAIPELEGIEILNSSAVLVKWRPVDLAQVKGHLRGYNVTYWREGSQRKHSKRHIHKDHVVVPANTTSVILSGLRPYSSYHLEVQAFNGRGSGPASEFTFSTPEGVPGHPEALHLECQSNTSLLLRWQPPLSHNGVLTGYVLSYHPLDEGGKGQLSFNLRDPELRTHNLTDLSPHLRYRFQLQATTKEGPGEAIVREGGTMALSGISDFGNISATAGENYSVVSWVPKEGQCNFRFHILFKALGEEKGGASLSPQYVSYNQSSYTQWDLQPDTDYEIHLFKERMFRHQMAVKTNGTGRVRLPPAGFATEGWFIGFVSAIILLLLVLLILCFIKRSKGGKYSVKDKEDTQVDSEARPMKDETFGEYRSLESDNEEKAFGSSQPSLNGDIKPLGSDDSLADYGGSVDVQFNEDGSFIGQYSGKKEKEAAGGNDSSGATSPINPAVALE

**Q.** What does the source list for `CC[C@H](C)[C@@H]1NC(=O)[C@H](CC(=O)O)NC(=O)[C@H](C(C)C)NC(=O)[C@H](C)NC(=O)[C@H](Cc2c[nH]cn2)NC(=O)[C@@H](NC(C)=O)CSSC[C@@H](C(N)=O)NC(=O)[C@H](CC(N)=O)NC1=O` (Ac-CHAVDINC-NH2; disulfide 1-8)?
**A.** inhibitory activity on N-cadherin dependent neurite outgrowth, structure/activity statements ([1]; listed as N—Ac-CHAVDINC-NH2): only a slight loss in activity; also recorded: potent inhibitors; effect on electrical resistance across MDCK cells (in words) [2]: complete abrogation of E-cadherin specific activity; EC50, decrease of electrical resistance across MDCK cell monolayer [2]: INACTIVE; inhibition at 125 µg/mL [3]: 1.7 ± 7.3%; effect on L1 stimulated neurite outgrowth (in words) ([3]; listed as N—Ac-CHAVDINC-NH2): did not interfere with the ability of neurons to extend neurites over 3T3 cells expressing L1

**Q.** For `CC(C)[C@@H]1NC(=O)[C@H](C)NC(=O)[C@H](Cc2c[nH]cn2)NC(=O)[C@@H](NC=O)CSSC[C@@H](C(N)=O)NC1=O` [H—C(O)—NH—CHAVC—NH2], which “effect on electrical resistance across MDCK cells (in words)” value [2] is on record?
**A.** decrease in potency

**Q.** And the EC50 [4]?
**A.** 560 µM

**Q.** How did the EC50 [4] turn out when `CC(=O)N[C@H]1CSSC[C@@H](C(N)=O)NC(=O)[C@H](C(C)C)NC(=O)[C@H](C)NC(=O)[C@H](Cc2c[nH]cn2)NC(=O)[C@H](CO)NC(=O)[C@H](Cc2ccccc2)NC1=O` [N—Ac—CFSHAVC—NH2] (Ac-CFSHAVC-NH2; disulfide 1-7) was run?
**A.** 22 µM

**Q.** Which inhibition at 250 µg/mL ([1]; 250 μg/mL) does the source give for `CC(=O)N[C@H]1CSSC[C@@H](C(=O)N[C@@H](CC(=O)O)C(N)=O)NC(=O)[C@H](C(C)C)NC(=O)[C@H](C)NC(=O)[C@H](Cc2c[nH]cn2)NC1=O` [N—Ac—CHAVCD—NH2] (Ac-CHAVCD-NH2; disulfide 1-5) here?
**A.** 3.3 ± 10%

**Q.** What about the EC50 [4] of the same compound?
**A.** 470 µM

**Q.** What does the source list for `CC(=O)N[C@H]1CSSC[C@@H](C(=O)N[C@@H](CO)C(=O)N[C@@H](CO)C(N)=O)NC(=O)[C@H](C(C)C)NC(=O)[C@H](C)NC(=O)[C@H](Cc2c[nH]cn2)NC1=O` [N—Ac—CHAVCSS—NH2] (Ac-CHAVCSS-NH2; disulfide 1-5)?
**A.** inhibition at 250 µg/mL ([1]; 250 μg/mL): 37.8 ± 4%; EC50 [4]: 430 µM

**Q.** `CC(=O)N[C@H]1CSSC[C@@H](C(=O)N[C@@H](CO)C(N)=O)NC(=O)[C@H](C(C)C)NC(=O)[C@H](C)NC(=O)[C@H](Cc2c[nH]cn2)NC1=O` [N—Ac—CHAVCS—NH2] (Ac-CHAVCS-NH2; disulfide 1-5) was tested. Which inhibition at 250 µg/mL ([1]; 250 μg/mL) did it give?
**A.** 6.9 ± 5.4%

**Q.** And the EC50 [4]?
**A.** 490 µM

**Q.** What does the source list for `CC(=O)N[C@H]1CSSC[C@@H](C(=O)N[C@H](C(N)=O)[C@@H](C)O)NC(=O)[C@H](C(C)C)NC(=O)[C@H](C)NC(=O)[C@H](Cc2c[nH]cn2)NC1=O` [N—Ac—CHAVCT—NH2] (Ac-CHAVCT-NH2; disulfide 1-5)?
**A.** inhibition at 250 µg/mL ([1]; 250 μg/mL): 23.7 ± 6.6%; EC50 [4]: 480 µM

**Q.** What does the source list for `CC(=O)N[C@H]1CSSC[C@@H](C(N)=O)NC(=O)[C@H](CC(=O)O)NC(=O)[C@H](C(C)C)NC(=O)[C@H](C)NC(=O)[C@H](Cc2c[nH]cn2)NC1=O` [N—Ac—CHAVDC—NH2] (Ac-CHAVDC-NH2; disulfide 1-6)?
**A.** inhibition of N-cadherin dependent neurite outgrowth (in words) ([1]; 250 μg/mL): potent inhibitors of neurite outgrowth; inhibitory activity on N-cadherin dependent neurite outgrowth, structure/activity statements [1]: dramatically increased the inhibitory activity; effect on electrical resistance across MDCK cells (in words) [2]: complete abrogation of E-cadherin specific activity; EC50, decrease of electrical resistance across MDCK cell monolayer [2]: INACTIVE; inhibition at 250 µg/mL [5]: 88%; inhibition at 125 µg/mL [3]: 9.6 ± 3.3%; effect on L1 stimulated neurite outgrowth (in words) [3]: did not interfere with the ability of neurons to extend neurites over 3T3 cells expressing L1

**Q.** `CC(=O)N[C@H]1CSSC[C@@H](C(N)=O)NC(=O)[C@H](C(C)C)NC(=O)[C@H](C)NC(=O)[C@H](Cc2c[nH]cn2)NC(=O)[C@H](CO)NC1=O` [N—Ac—CSHAVC—NH2, N-Ac-Cys-Ser-His-Ala-Val-Cys-NH2] (Ac-CSHAVC-NH2; disulfide 1-6) was tested. Which IC50 [6] did it give?
**A.** > 100 µM

**Q.** And the IC50 [7]?
**A.** > 100 µM

**Q.** What about the IC50 [8] of the same compound?
**A.** > 100 µM

**Q.** And the IC50 [9]?
**A.** > 100 µM

**Q.** And the IC50 [10]?
**A.** > 100 µM

**Q.** What about the IC50 [11] of the same compound?
**A.** > 100 µM

**Q.** What about the IC50 [12] of the same compound?
**A.** > 100 µM

**Q.** What about the IC50 [13] of the same compound?
**A.** > 100 µM

**Q.** What about the “reduction in inhibitory activity on flanking HAV with E-cadherin amino acids” value ([1]; 250 μg/mL (Table 8)) of the same compound?
**A.** complete

**Q.** What about the inhibition at 250 µg/mL [5] of the same compound?
**A.** 0%

**Q.** What about the EC50 [4] of the same compound?
**A.** 20 µM

**Q.** Which EC50 [4] does the source give for `CC(=O)N[C@@H](CO)C(=O)N[C@H]1CSSC[C@@H](C(N)=O)NC(=O)[C@H](C(C)C)NC(=O)[C@H](C)NC(=O)[C@H](Cc2c[nH]cn2)NC1=O` [N—Ac—S—CHAVC—NH2] (Ac-SCHAVC-NH2; disulfide 2-6) here?
**A.** 490 µM
